# Reference: patent US20250163052A1, “cGAS INHIBITORS AND USES THEREOF” (Cornell University, priority 2022, published 2025)
# Columns and labels:
# [1] = Metabolic stability in human liver microsomes
# [2] = tested on: MEF2C target genes; experiment: Single-nuclei RNA-seq of excitatory and inhibitory neurons, overlap with MEF2C target genes; format: in vivo, mouse; conditions: P301S mice, 150 mg/kg diet for three months; snRNA-seq
# Method: Hippocampi isolation from frozen mouse hippocampi was adapted from a previous study with modifications (Grubman et al., 2019; Habib et al., 2017). All procedures were done on ice or at 4° C. In brief, post-mortem brain tissue was placed in 1500 μl of Sigma nuclei PURE lysis buffer (Sigma, NUC201-1KT) and homogenized with a Dounce tissue grinder (Sigma, D8938-1SET) with 20 strokes with pestle A and 15 strokes with pestle B. The homogenized tissue was filtered through a 35-μm cell strainer, then centrifuged at 600 g for 5 min at 4° C. and washed three times with 1 ml of PBS containing 1% BSA, 20 mM DTT and 0.2 U μl^−1 recombinant RNase inhibitor. […] The FACS-sorted suspension of DAPI-stained nuclei were counted and diluted to a concentration of 1000 nuclei per microliter in PBS containing 0.04% BSA. […]
# Gene counts were obtained by aligning reads to the mm10 genome with Cell Ranger software (v.3.1.0) (10× Genomics). To account for unspliced nuclear transcripts, reads mapping to pre-mRNA were counted. […] We further removed genes expressed in no more than 2 cells, cells with unique gene counts over 4,000 or less than 200, and cells with high fraction of mitochondrial reads (>5%). […] To identify gene ontology and pathways enriched in the differentially expressed genes (DEGs), DEGS were analysed using (MSigDB) gene annotation database (Liberzon et al., 2011; Subramanian et al., 2005). […]
# [3] = target: h-cGAS (Homo sapiens, UniProt Q8N884); experiment: Cell-free human cGAS enzyme inhibition assay (ATP depletion, Kinase-Glo Max); format: biochemical; conditions: human cGAS
# Chain of h-cGAS (Q8N884 whole entry): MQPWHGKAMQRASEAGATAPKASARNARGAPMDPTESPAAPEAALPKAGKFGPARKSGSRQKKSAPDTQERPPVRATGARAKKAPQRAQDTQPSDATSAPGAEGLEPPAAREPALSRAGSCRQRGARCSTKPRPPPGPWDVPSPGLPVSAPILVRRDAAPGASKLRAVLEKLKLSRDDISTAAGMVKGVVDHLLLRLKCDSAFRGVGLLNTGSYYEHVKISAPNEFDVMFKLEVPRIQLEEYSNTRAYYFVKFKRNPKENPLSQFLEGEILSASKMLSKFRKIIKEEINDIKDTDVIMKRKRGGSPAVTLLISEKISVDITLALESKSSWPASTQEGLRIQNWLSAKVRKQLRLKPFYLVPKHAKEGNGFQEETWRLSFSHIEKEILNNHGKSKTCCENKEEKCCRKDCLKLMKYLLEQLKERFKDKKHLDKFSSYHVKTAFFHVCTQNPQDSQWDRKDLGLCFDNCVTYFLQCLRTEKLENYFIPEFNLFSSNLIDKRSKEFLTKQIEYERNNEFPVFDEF
smiles,measurement,setting,value
"Cn1c2c(c3ccc(Cl)c(F)c31)CN(C(=O)CO)CC2 [TDI-6570, reference compound]",Remaining (NCF = 60 min),"[1]; human liver microsomes, 60 min, no co-factor (no NADPH)",120.6%
same,Remaining (T = 60 min),"[1]; human liver microsomes, 60 min with NADPH",11.3%
same,CLint(liver),"[1]; human liver microsomes, scaled from CLint(mic)",68.2 mL/min/kg
same,CLint(mic),"[1]; human, liver microsomes",75.8 µL/min/mg
same,T½,"[1]; human, liver microsomes",18.3 min
same,Enrichment of MEF2C target genes in DEGs of excitatory and inhibitory neurons,[2],strong enrichment of MEF2C target genes
same,IC50,[3],138 nM
